Results from US8211929B2, “Pyrimidine derivatives as kinase modulators and method of use” (Exelixis, Inc., priority 2004, dated 2012).
Read-outs that look alike come from different tables or passages of the source.

How the values were obtained:
[1] = target: T1, (Homo sapiens, UniProt P08069); experiment: IGF1R kinase assay (LCCA), IGF 0P; type: biochemical
T1 construct: human IGF1R kinase domain residues M954-C1367; made in house; host or cells: baculovirus expression (insect cells)
Procedure, shortened: (§1)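 Baculovirus-expressed human IGF1R kinase domain (M954-C1367), 4 nM, with 3 μM ATP and 4 μM poly EY in Tris-HCl pH 7.5 buffer containing MgCl2 and MnCl2, 2 h at ambient temperature. Remaining ATP read by luciferase chemiluminescence; IC50 from 10-point dose-response fitted to a four-parameter equation.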

[2] = target: T2, IGF 3P (Homo sapiens, UniProt P08069); experiment: IGF1R kinase assay (LCCA), IGF 3P; type: biochemical
T2 construct: human IGF1R kinase domain residues M954-C1367; made in house; host or cells: baculovirus expression (insect cells)
Procedure, shortened: as §1

T2 sequence (P08069 954-1367): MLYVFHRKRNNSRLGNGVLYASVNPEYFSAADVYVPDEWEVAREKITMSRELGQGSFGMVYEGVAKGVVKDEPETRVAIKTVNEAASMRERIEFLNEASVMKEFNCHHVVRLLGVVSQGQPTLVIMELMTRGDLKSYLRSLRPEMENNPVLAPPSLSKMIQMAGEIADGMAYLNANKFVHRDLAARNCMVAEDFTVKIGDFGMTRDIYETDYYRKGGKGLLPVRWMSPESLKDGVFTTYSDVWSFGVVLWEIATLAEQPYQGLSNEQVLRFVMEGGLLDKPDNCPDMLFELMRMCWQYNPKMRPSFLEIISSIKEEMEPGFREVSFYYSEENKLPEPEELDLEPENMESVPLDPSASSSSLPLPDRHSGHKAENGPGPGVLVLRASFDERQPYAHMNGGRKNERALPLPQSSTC
T1 sequence (P08069 954-1367): as above

Row | SMILES | IC50 ([1]; IGF1R kinase LCCA assay) [µM] | IC50 ([2]; IGF1R kinase LCCA assay) [µM] | IC50 [1] [µM] | IC50 [2] [µM]
1 | Clc1cc(Cl)cc(Nc2ncc(Br)c(Nc3cc(C4CC4)n[nH]3)n2)c1 [Example 303] | > 5 | > 5 | – | –
2 | CSc1ccccc1Nc1ncc(Br)c(Nc2cc(C3CC3)n[nH]2)n1 [Example 131] | 0.5 to 5 | 0.05 to 0.5 | – | –
3 | Cc1cc(Nc2n[nH]cc2C#N)nc(NCc2cc(-c3ccccc3)no2)n1 [Example 306] | > 5 | > 5 | – | –
4 | Brc1cnc(NCc2cc(-c3ccccc3)cs2)nc1Nc1cc(C2CC2)n[nH]1 [Example 271] | > 5 | > 5 | – | –
5 | O=C(NCCN1CCOCC1)c1nc(Nc2ccccc2Cl)nc(Nc2cc(C3CC3)n[nH]2)c1[N+](=O)[O-] [Example 228] | 0.5 to 5 | 0.5 to 5 | – | –
6 | Cc1cc(Nc2cc(C3CC3)[nH]n2)nc(NCc2cc(C(C)C)no2)n1 [Example 50] | 0.5 to 5 | < 0.05 | – | –
7 | Brc1cnc(NC2CCNCC2)nc1Nc1cc(C2CC2)[nH]n1 [Example 214] | > 5 | 0.5 to 5 | – | –
8 | Clc1ccccc1Nc1ncc(Br)c(Nc2ccccc2Cl)n1 [Example 222] | 0.5 to 5 | 0.5 to 5 | – | –
9 | Clc1ccccc1Nc1ncc(Br)c(Nc2n[nH]c3ccccc23)n1 [Example 267] | > 5 | > 5 | – | –
10 | Cc1cc(Nc2nc(Nc3ccccc3)ncc2Br)[nH]n1 [Example 90] | 0.5 to 5 | 0.05 to 0.5 | – | –
11 | Cc1cc(CNc2nc(Nc3cc(C4CC4)[nH]n3)cc(N3C[C@H]4C[C@@H]3CN4Cc3ccccc3)n2)on1 [Example 635, N^4-(5-cyclopropyl-1H-pyrazol-3-yl)-N^2-[(3-methylisoxazol-5-yl)methyl]-6-[(1R,4R)-5-(phenylmethyl)-2,5-diazabicyclo[2.2.1]hept-2-yl]pyrimidine-2,4-diamine] | – | – | 0.05 to 0.5 | < 0.05
12 | Fc1ccc(Nc2ncc(Br)c(Nc3cc(C4CC4)n[nH]3)n2)c(Br)c1 [Example 121] | 0.05 to 0.5 | 0.05 to 0.5 | – | –
13 | CCc1cc(CNc2nc(Nc3cc(C4CC4)n[nH]3)cc(OCCN(C)C)n2)on1 [Example 657, N^4-(3-cyclopropyl-1H-pyrazol-5-yl)-6-{[2-(dimethylamino)ethyl]oxy}-N^2-[(3-ethylisoxazol-5-yl)methyl]pyrimidine-2,4-diamine] | – | – | 0.05 to 0.5 | < 0.05
14 | CC(C)c1cc(Nc2cc(OCCN3CCCCC3)nc(NCc3cc(-c4ccccc4)no3)n2)[nH]n1 [Example 589, N^4-[3-(1-methylethyl)-1H-pyrazol-5-yl]-N^2-[(3-phenylisoxazol-5-yl)methyl]-6-[(2-piperidin-1-ylethyl)oxy]pyrimidine-2,4-diamine] | – | – | 0.05 to 0.5 | < 0.05
15 | Brc1cnc(NCC(c2ccccc2)c2ccccc2)nc1Nc1cc(C2CC2)[nH]n1 [Example 329] | > 5 | > 5 | – | –
16 | CN1CCN(c2cc(Nc3cc(C4CC4)[nH]n3)nc(NCc3cc(-c4ccncn4)no3)n2)CC1 [Example 628, N^4-(5-cyclopropyl-1H-pyrazol-3-yl)-6-(4-methylpiperazin-1-yl)-N^2-[(3-pyrimidin-4-ylisoxazol-5-yl)methyl]pyrimidine-2,4-diamine] | – | – | 0.05 to 0.5 | < 0.05
17 | CCN(CC)CCCNC(=O)CCc1cccc(Nc2ncc(Br)c(Nc3cc(C4CC4)n[nH]3)n2)c1 [Example 107] | 0.5 to 5 | 0.05 to 0.5 | – | –
18 | Brc1cnc(NCc2cc(-c3ccccc3)no2)nc1Nc1ccccc1 [Example 292] | > 5 | > 5 | – | –
19 | Cc1cc(Nc2cc(C3CC3)n[nH]2)nc(Nc2ccc(CCN3CCCC3)cc2)n1 [Example 551] | 0.5 to 5 | 0.05 to 0.5 | – | –
20 | CN1CCN(c2ccc(CNc3ncc(Br)c(Nc4cc(C5CC5)n[nH]4)n3)cc2)CC1 [Example 186] | 0.5 to 5 | 0.5 to 5 | – | –
21 | Cc1cc(Nc2cc(N3CCOCC3)nc(NCc3cc(-c4ccccc4)no3)n2)[nH]n1 [Example 617, N^4-(3-methyl-1H-pyrazol-5-yl)-6-morpholin-4-yl-N^2-[(3-phenylisoxazol-5-yl)methyl]pyrimidine-2,4-diamine] | – | – | 0.05 to 0.5 | < 0.05
22 | O=C(c1cc(Nc2cc(C3CC3)[nH]n2)nc(NCc2cc(-c3ccccc3)no2)n1)N1CCOCC1 [Example 512] | 0.05 to 0.5 | 0.05 to 0.5 | – | –
23 | COc1cc(Nc2nccc(Nc3cc(C4CC4)n[nH]3)n2)cc(OC)c1 [Example 203] | 0.5 to 5 | 0.5 to 5 | – | –
24 | Nc1ncc(Br)c(Nc2cc(C3CC3)[nH]n2)n1 [Example 314] | > 5 | > 5 | – | –

Row | SMILES | IC50 ([1]; IGF1R kinase LCCA assay) [µM] | IC50 ([2]; IGF1R kinase LCCA assay) [µM] | IC50 [1] [µM] | IC50 [2] [µM]
25 | Cc1c(Br)cccc1Nc1ncc(Br)c(Nc2cc(C3CC3)[nH]n2)n1 [Example 95] | 0.05 to 0.5 | 0.05 to 0.5 | – | –
26 | Cc1cc(Nc2cc(C(C)C)[nH]n2)nc(NCc2cc(-c3cccc(Cl)c3)no2)n1 [Example 535] | 0.05 to 0.5 | 0.05 to 0.5 | – | –
27 | c1ccc(-c2cc(CNc3nc(CN4CCOCC4)cc(Nc4cc(C5CC5)[nH]n4)n3)on2)cc1 [Example 561] | 0.05 to 0.5 | 0.05 to 0.5 | – | –
28 | Cc1cc(Nc2cc(C3CC3)n[nH]2)nc(Nc2ccc(N3CCN(C)CC3)cc2)n1 [Example 569] | 0.5 to 5 | 0.5 to 5 | – | –
29 | Cc1cc(Nc2ccnc(Nc3ccc(N4CCOCC4)cc3)n2)no1 [Example 113] | 0.5 to 5 | 0.05 to 0.5 | – | –
30 | Brc1cnc(NC2CCCc3ccccc32)nc1Nc1cc(C2CC2)[nH]n1 (stereo not drawn) [Example 34] | 0.05 to 0.5 | 0.5 to 5 | – | –
31 | Brc1cnc(Nc2cc(-c3ccccc3)n[nH]2)nc1Nc1cc(-c2ccccc2)n[nH]1 [Example 319] | > 5 | > 5 | – | –
32 | CN(C)CCOc1cc(Nc2cc(C3CC3)[nH]n2)nc(NCc2cc(-c3ccncn3)no2)n1 [Example 638, N^4-(5-cyclopropyl-1H-pyrazol-3-yl)-6-{[2-(dimethylamino)ethyl]oxy}-N^2-[(3-pyrimidin-4-ylisoxazol-5-yl)methyl]pyrimidine-2,4-diamine] | – | – | 0.05 to 0.5 | < 0.05
33 | CCN(CC)CCNC(=O)c1ccc(Nc2ncc(C)c(Nc3cc(C4CC4)n[nH]3)n2)cc1 [Example 167] | 0.5 to 5 | 0.5 to 5 | – | –
34 | Cc1cc(Nc2cc(C3CC3)[nH]n2)nc(NCc2cc(-c3ccccc3Br)no2)n1 [Example 525] | 0.05 to 0.5 | 0.05 to 0.5 | – | –
35 | O=S(=O)(c1ccc(Nc2ncc(Br)c(Nc3cc(C4CC4)n[nH]3)n2)cc1)N1CCOCC1 [Example 140] | 0.5 to 5 | 0.05 to 0.5 | – | –
36 | Cc1cc(Nc2nc(Nc3ccc(N4CCOCC4)cc3)ncc2Br)n(C)n1 [Example 215] | > 5 | 0.5 to 5 | – | –
37 | Brc1cnc(NCCc2cccs2)nc1Nc1cc(C2CC2)n[nH]1 [Example 170] | 0.5 to 5 | 0.5 to 5 | – | –
38 | Clc1cccc(Nc2nc(Nc3ccccc3Cl)ncc2Br)c1 [Example 205] | 0.5 to 5 | 0.5 to 5 | – | –
39 | Nc1ncnc2c1c(-c1cccc(OCc3ccccc3)c1)cn2CC1CC2CNCC2C1 (stereo not drawn) [Example 358] | > 5 | > 5 | – | –
40 | Cc1cc(Nc2cc(C3CC3)n[nH]2)nc(Nc2ccc(CC#N)cc2)n1 [Example 125] | 0.05 to 0.5 | 0.05 to 0.5 | – | –
41 | Clc1ccccc1Nc1nc(Nc2cc(C3CC3)n[nH]2)c2nc[nH]c2n1 [Example 210] | 0.05 to 0.5 | 0.5 to 5 | – | –
42 | COc1ccc(-c2cc(CNc3ncc(Br)c(Nc4cc(C5CC5)[nH]n4)n3)on2)cc1 [Example 277] | > 5 | > 5 | – | –
43 | NC(=O)c1c[nH]nc1Nc1nc(Nc2ccccc2Cl)ncc1Br [Example 332] | > 5 | > 5 | – | –
44 | CCN(CC)CCNC(=O)c1ccc(Nc2nccc(Nc3cc(C4CC4)n[nH]3)n2)cc1 [Example 184] | 0.5 to 5 | 0.5 to 5 | – | –
45 | CC(C)c1cc(CNc2nc(Nc3cc(C4CC4)[nH]n3)cc(OCCN3CCOCC3)n2)on1 [Example 594, N^4-(5-cyclopropyl-1H-pyrazol-3-yl)-N^2-{[3-(1-methylethyl)isoxazol-5-yl]methyl}-6-[(2-morpholin-4-ylethyl)oxy]pyrimidine-2,4-diamine] | – | – | 0.5 to 5 | < 0.05
46 | Cc1cc(Nc2cc(C3CC3)n[nH]2)nc(Nc2ccc(CCN3CCCCC3)cc2)n1 [Example 554] | 0.5 to 5 | 0.5 to 5 | – | –
47 | Brc1cnc(Nc2cccc3ccccc23)nc1Nc1cc(C2CC2)[nH]n1 [Example 130] | 0.05 to 0.5 | 0.05 to 0.5 | – | –
48 | Cc1cc(Nc2cc(C3CC3)[nH]n2)nc(NCc2cc(-c3ccc(Cl)cc3)no2)n1 [Example 178] | 0.05 to 0.5 | 0.5 to 5 | – | –
